System: zinc metalloproteases
Assay: Azocoll assay with selective protease inhibitor
Format: biochemical
Details: 1 mM inhibitor, azocoll assay pH 7.6
Method: Azocoll assays were carried out as described by Fisher and Werb (1995). For assays on medium from cells infected with the viruses expressing the mammalian proteases, all medium samples were concentrated 10-fold except for medium from AcMLF9.STR1-infected cells. Samples for analysis of S. peregrina cathepsin L expression were not concentrated. Aliquots of infected cell medium (2.5 μl for AcMLF9. ScathL-infected cells, 40 μl for all other samples) were mixed with 200 μl of 2 mg/ml azocoll suspended either in 50 mM Tris, pH 7.6-10 mM CaCl2-200 mM NaCl-50 μM ZnSO4 (for detection of stromelysin-1 and gelatinase A activity) or in 0.1 M sodium acetate, pH 5.0 (for detection of cathepsin L activity) in a final volume of 240 μl. A control reaction with sufficient dispase (Boehringer Mannheim, Indianapolis, Ind.) to digest all azocoll in the reaction tube was used as a standard. […] Absorbance of the supernatant was measured at 520 nm for each reaction, and mg azocoll digested/ml medium was calculated based on the absorbance of the dispase control reaction (Fisher, S. J., and Werb, Z. 1995. The catabolism of extracellular matrix components. In “Extracellular Matrix: A Practical Approach” (M. A. Haralson, and J. R. Hassell, Eds.), pp. 261-287. Oxford University Press, New York).

c1cnc2c(c1)ccc1cccnc12 [1,10-phenanthroline]
Inhibition of proteolytic activity in supernatants of stromelysin- and gelatinase-expressing virus infections: inhibited

Source: patent US6673340B1, “Basement membrane degrading proteases as insect toxins and methods of use for same” (Iowa State University Research Foundation, Inc., priority 1999, dated 2004)
